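Following 48 hours of exposure in 96-well plates, responses at five concentrations were used to interpolate endpoints linearly. TGI denotes the concentration required for complete inhibition of growth.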
Tests used:
Experiment in all cases: NCI tumour cell line growth inhibition, 48 h
A549 NSCLC = test system: A549 NSCLC
CAKI-1 renal = test system: CAKI-1 renal
CCRF-CEM leukemia = test system: CCRF-CEM leukemia
COLO 205 colon = test system: COLO 205 colon
HOP-92 NSCLC = test system: HOP-92 NSCLC
K-562 leukemia = test system: K-562 leukemia
LOX IMVI melanoma = test system: LOX IMVI melanoma
MCF7 breast = test system: MCF7 breast
OVCAR-4 ovarian = test system: OVCAR-4 ovarian
OVCAR-8 ovarian = test system: OVCAR-8 ovarian
RXF 393 renal = test system: RXF 393 renal
SF-268 CNS = test system: SF-268 CNS
SK-MEL-2 melanoma = test system: SK-MEL-2 melanoma
SK-OV-3 ovarian = test system: SK-OV-3 ovarian
SN12C renal = test system: SN12C renal
U251 CNS = test system: U251 CNS
UACC-257 melanoma = test system: UACC-257 melanoma
UO-31 renal = test system: UO-31 renal
KM12 colon = test system: KM12 colon
NCI-H522 lung = test system: NCI-H522 lung

| SMILES | TGI (A549 NSCLC) | TGI (CAKI-1 renal) | TGI (CCRF-CEM leukemia) | TGI (COLO 205 colon) | TGI (HOP-92 NSCLC) | TGI (K-562 leukemia) | TGI (LOX IMVI melanoma) | TGI (MCF7 breast) | TGI (OVCAR-4 ovarian) | TGI (OVCAR-8 ovarian) | TGI (RXF 393 renal) | TGI (SF-268 CNS) | TGI (SK-MEL-2 melanoma) | TGI (SK-OV-3 ovarian) | TGI (SN12C renal) | TGI (U251 CNS) | TGI (UACC-257 melanoma) | TGI (UO-31 renal) | TGI (KM12 colon) | TGI (NCI-H522 lung) |
| --- | --- | --- | --- | --- | --- | --- | --- | --- | --- | --- | --- | --- | --- | --- | --- | --- | --- | --- | --- | --- |
| O=C1CC(=O)c2c(O)cc(O)c(c2O)-c2c(ccc(O)c2O)C2=CC(=O)c3c(O)cc(O)c(c3O2)-c2c1ccc(O)c2O (tested in a mixture with another compound) | > 50 µM | > 50 µM | > 50 µM | > 50 µM | > 50 µM | > 50 µM | > 50 µM | > 50 µM | > 50 µM | > 50 µM | > 50 µM | > 50 µM | > 50 µM | > 50 µM | > 50 µM | > 50 µM | > 50 µM | > 50 µM | – | – |
| O=C(CC/C=C(/CS(=O)(=O)c1ccccc1)S(=O)(=O)c1ccccc1)c1ccccc1 | > 100 µM | – | > 100 µM | – | > 100 µM | > 100 µM | > 100 µM | – | > 100 µM | > 100 µM | > 100 µM | – | > 100 µM | > 100 µM | > 100 µM | > 100 µM | > 100 µM | > 100 µM | > 100 µM | 49.8 µM |
| Nc1nc2c(c(=O)[nH]1)N(C=O)C(CNc1ccc(C(=O)N[C@@H](CCC(=O)O)C(=O)O)cc1)CN2 (some centres not stated) | > 125 µM | > 125 µM | > 31.4 µM | > 125 µM | > 125 µM | > 31.4 µM | > 125 µM | > 125 µM | > 125 µM | > 125 µM | > 125 µM | > 125 µM | 49.1 µM | > 125 µM | > 125 µM | > 125 µM | > 125 µM | > 125 µM | > 125 µM | > 125 µM |
| CC(=O)OCC1OC(n2cc(F)c(=O)[nH]c2=O)C(N)C(OC(C)=O)C1OC(C)=O (configuration not stated) | > 100 µM | > 100 µM | > 100 µM | > 100 µM | > 100 µM | > 100 µM | > 100 µM | > 100 µM | > 100 µM | > 100 µM | > 100 µM | > 100 µM | > 100 µM | > 100 µM | > 100 µM | > 100 µM | > 100 µM | > 100 µM | > 100 µM | > 100 µM |
| CCOC(=O)c1sc2nc(SC)nc3c2c1NC(=O)CN3c1cccc(F)c1 | 28 µM | > 100 µM | – | > 100 µM | 55.6 µM | 93.3 µM | 38.8 µM | > 100 µM | 42 µM | 30.6 µM | 32 µM | 28.1 µM | 67.6 µM | 37.4 µM | 35.5 µM | 31.9 µM | > 100 µM | 35.1 µM | > 100 µM | > 100 µM |
| C/C(=N\NS(=O)(=O)c1ccccc1)c1ccccc1 | > 100 µM | > 100 µM | > 100 µM | > 100 µM | > 100 µM | > 100 µM | > 100 µM | > 100 µM | > 100 µM | > 100 µM | > 100 µM | > 100 µM | > 100 µM | > 100 µM | > 100 µM | > 100 µM | > 100 µM | > 100 µM | > 100 µM | > 100 µM |
| CC(=O)NCCC1CN(C(=O)/C=C\C#C[Si](C)(C)C)c2ccccc21 (configuration not stated) | > 100 µM | 33.2 µM | > 100 µM | > 100 µM | > 100 µM | > 100 µM | 44.3 µM | > 100 µM | 63.3 µM | > 100 µM | 55.3 µM | > 100 µM | 37.8 µM | > 100 µM | > 100 µM | – | 9.27 µM | > 100 µM | > 100 µM | 24.3 µM |

— PubChem BioAssay (NCI)
